Laboratory results as given in ChEMBL document CHEMBL4715741, “Neuroprotective effect of synthetic chalcone derivatives as competitive dual inhibitors against μ-calpain and cathepsin B through the downregulation of tau phosphorylation and insoluble Aβ peptide formation” (Eur J Med Chem, 2016).
pIC50, pKi: −log10 of the molar value. The source made the active and inactive calls. The rule behind the calls is not given here. Square brackets hold non-standard residues; d marks the D form. Peptide text beside a SMILES is read from it. * marks the point of attachment. ξ: configuration not given here. ξF = NC(Cc1ccccc1)C(=O)O; Cbz = O=C(OCc1ccccc1)*; CH2F = FC*

What was measured:
[1] = molecular target: T1, Calpain-1 catalytic subunit (Homo sapiens, UniProt P07384); experiment: Inhibition of human erythrocytes mu-calpain using Pep2 as substrate incubated for 30 mins under shaking condition in presence of CaCl2 by fluorescence assay; set-up: species or system Erythrocyte
T1 sequence (P07384 whole entry): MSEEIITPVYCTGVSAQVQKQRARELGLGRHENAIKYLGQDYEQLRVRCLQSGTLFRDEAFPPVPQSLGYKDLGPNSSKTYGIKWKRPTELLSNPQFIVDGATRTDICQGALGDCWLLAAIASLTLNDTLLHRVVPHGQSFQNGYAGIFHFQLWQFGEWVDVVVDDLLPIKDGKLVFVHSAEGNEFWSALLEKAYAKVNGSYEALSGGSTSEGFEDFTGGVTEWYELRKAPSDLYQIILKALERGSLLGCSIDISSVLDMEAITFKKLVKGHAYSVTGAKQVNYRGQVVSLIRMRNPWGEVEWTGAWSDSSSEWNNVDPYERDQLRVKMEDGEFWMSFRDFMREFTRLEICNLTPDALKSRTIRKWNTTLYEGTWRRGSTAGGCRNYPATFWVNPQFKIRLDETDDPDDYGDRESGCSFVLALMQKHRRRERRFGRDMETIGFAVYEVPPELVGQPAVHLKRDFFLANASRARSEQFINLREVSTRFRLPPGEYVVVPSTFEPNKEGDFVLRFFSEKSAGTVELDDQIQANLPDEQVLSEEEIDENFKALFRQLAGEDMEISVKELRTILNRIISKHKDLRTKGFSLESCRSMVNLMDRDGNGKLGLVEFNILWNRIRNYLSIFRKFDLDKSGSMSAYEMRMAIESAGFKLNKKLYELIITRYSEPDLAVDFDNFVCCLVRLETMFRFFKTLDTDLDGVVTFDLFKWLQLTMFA

Cathepsin B [2] = molecular target: T2, Cathepsin B (Homo sapiens, UniProt P07858); experiment: Inhibition of human liver cathepsin B using RR-AMC as substrate preincubated for 30 mins followed by substrate addition and further incubated for 30 mins under shaking condition by fluorescence assay; format: tissue-based
[3] = molecular target: T1, Calpain-1 catalytic subunit; experiment: Inhibition of human erythrocytes mu-calpain using Pep1 as substrate incubated for 30 mins under shaking condition in presence of CaCl2 by fluorescence assay; set-up: species or system Erythrocyte
Cathepsin B [4] = molecular target: T2, Cathepsin B; experiment: Inhibition of cathepsin B (unknown origin) using RR-AMC as substrate preincubated for 30 mins followed by substrate addition and further incubated for 30 mins under shaking condition by fluorescence assay
[5] = molecular target: T3, Calpain-1 catalytic subunit (Homo sapiens) (UniProt P07384); experiment: Inhibition of mu-calpain in human SH-SY5Y cells assessed as reduction in GOx-induced […] pretreated with GOx for 4 hrs followed by compound treatment by Western blot analysis; format: cell-based
T3 sequence (whole entry): T1 sequence (P07384 whole entry)

[6] = molecular target: T3, Calpain-1 catalytic subunit (Homo sapiens); experiment: Inhibition of mu-calpain in human SH-SY5Y cells assessed as reduction in GOx-induced MAPK phosphorylation pretreated with GOx for 4 hrs followed by compound treatment by Western blot analysis; format: cell-based
Cathepsin B [7] = molecular target: T2, Cathepsin B; experiment: Competitive inhibition of cathepsin B (unknown origin) using varying level of RR-AMC as substrate by Lineweaver-Burk plot analysis
[8] = molecular target: T3, Calpain-1 catalytic subunit (Homo sapiens); experiment: Inhibition of mu-calpain (unknown origin) expressed in SH-SY5Y cells assessed as reduction in p35 cleavage at 20 uM using p35 as substrate measured after 210 mins by fluorescence microplate reader assay; format: cell-based
Procathepsin L = Procathepsin L (Homo sapiens, UniProt P07711); experiment: Inhibition of cathepsin L (unknown origin) using Z-FR-AMC as substrate preincubated for 30 mins followed by substrate addition and further incubated for 30 mins under shaking condition by fluorescence assay
SH-SY5Y [9] = experiment: Inhibition of mu-calpain/cathepsin B in human SH-SY5Y cells assessed as reduction in GOx-induced BACE1 upregulation at 20 uM pretreated with GOx for 4 hrs followed by compound treatment by Western blot analysis; format: cell-based
SH-SY5Y [10] = experiment: Neuroprotective activity in human SH-SY5Y cells assessed as reduction in GOx-induced PARP cleavage at 5 uM pretreated with GOx for 4 hrs followed by compound treatment by Western blot analysis; format: functional, cell-based
SH-SY5Y [11] = experiment: Reduction in GOx-induced amyloid beta(1 to 42) level in human SH-SY5Y cells pretreated with GOx for 4 hrs followed by compound treatment by sandwich ELISA; format: functional, cell-based
Cathepsin B [12] = molecular target: T2, Cathepsin B; experiment: Inhibition of cathepsin B in human SH-SY5Y cells using RR-AMC as substrate by fluorescence microplate reader assay; format: cell-based
[13] = molecular target: T1, Calpain-1 catalytic subunit; experiment: (§1) Competitive inhibition of human erythrocytes mu-calpain using varying level of Pep2 as substrate by Lineweaver-Burk plot analysis; set-up: species or system Erythrocyte
[14] = molecular target: T3, Calpain-1 catalytic subunit (Homo sapiens); experiment: as §1; details: Erythrocyte
SH-SY5Y [15] = experiment: Neuroprotective activity in human SH-SY5Y cells assessed as reduction in GOx-induced caspase 3 cleavage pretreated with GOx for 4 hrs followed by compound treatment by Western blot analysis; format: functional, cell-based
[16] = molecular target: T3, Calpain-1 catalytic subunit (Homo sapiens); experiment: Inhibition of mu-calpain (unknown origin) expressed in HEK293T cells assessed as reduction in p35 cleavage at 5 uM using p35 as substrate measured after 210 mins by fluorescence microplate reader assay; format: cell-based
[17] = molecular target: T3, Calpain-1 catalytic subunit (Homo sapiens); experiment: Inhibition of mu-calpain in human SH-SY5Y cells assessed as reduction in tau phosphorylation by Western blot analysis; format: cell-based
SH-SY5Y [18] = experiment: Neuroprotective activity in human SH-SY5Y cells assessed as reduction in GOx-induced PARP cleavage at 20 uM pretreated with GOx for 4 hrs followed by compound treatment by Western blot analysis; format: functional, cell-based

Procathepsin L, sequence (P07711 whole entry): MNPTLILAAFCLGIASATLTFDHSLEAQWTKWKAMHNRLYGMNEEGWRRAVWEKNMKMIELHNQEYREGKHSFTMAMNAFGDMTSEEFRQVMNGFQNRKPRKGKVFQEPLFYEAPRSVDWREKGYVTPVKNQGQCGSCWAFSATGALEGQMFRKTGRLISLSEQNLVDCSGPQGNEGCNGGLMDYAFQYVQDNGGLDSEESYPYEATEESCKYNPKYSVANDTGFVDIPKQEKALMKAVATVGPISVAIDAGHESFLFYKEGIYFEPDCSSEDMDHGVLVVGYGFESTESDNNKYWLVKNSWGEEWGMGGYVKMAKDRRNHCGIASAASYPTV

Row | SMILES | pIC50 [3] | pIC50 (Cathepsin B [4]) | pIC50 (Procathepsin L) | also measured
1 | COc1cc(/C=C/C(=O)c2ccco2)ccc1O |  |  |  | pIC50 [1]: 4.81; pIC50 (Cathepsin B [2]): 4.69
2 | COc1ccc(O)cc1/C=C/C(=O)c1ccc(O)cc1 |  |  |  | pIC50 [1]: 4.78
3 | COc1cc(O)ccc1C(=O)/C=C/c1ccc(O)cc1 |  |  |  | pIC50 [1]: 4.77
4 | O=C(/C=C/c1ccc(O)c2ccccc12)c1cccs1 | < 4.30 | < 4.30 | 4.45 | 
5 | CCOC(=O)[C@H]1O[C@@H]1C(=O)N[C@@H](CC(C)C)C(=O)NCCC(C)C [ALOXISTATIN] | 4.21 | 4.84 | 5.62 | Activity (SH-SY5Y [18]): Active
6 | CCCNC(=O)[C@H]1O[C@@H]1C(=O)N[C@H](C(=O)N1CCC[C@H]1C(=O)O)[C@@H](C)CC | < 4.00 |  |  | Activity (SH-SY5Y [18]): Active
7 | CC(C)[C@H](NC(=O)OCc1ccccc1)C(=O)NC(C=O)Cc1ccccc1 (stereo partly drawn) (Cbz-Val-[ξF]-aldehyde) |  |  |  | Activity (SH-SY5Y [18]): Active
8 | O=C(/C=C/c1ccc(O)c2ccccc12)c1ccc(O)cc1 | 4.16 | 4.83 | 4.67 | 
9 | COc1ccc(/C=C/C(=O)/C=C/c2ccc(O)cc2OC)cc1 | 4.33 | 4.42 | < 4.30 | 

Continued, in another order:

Row | pIC50 [3] | pIC50 (Cathepsin B [4]) | pIC50 (Procathepsin L) | SMILES | also measured
10 | 6.40 |  |  | O=C(N[C@@H](Cc1ccccc1)C(=O)N[C@@H](Cc1ccccc1)C(=O)CF)OCc1ccccc1 (Cbz-Phe-Phe-CH2F) | 
11 | 4.73 | 5.20 | 4.83 | O=C(/C=C/c1ccc(O)c2ccccc12)c1ccc(O)cc1O | inhibition [5]: Active; inhibition [6]: Active; pKi (Cathepsin B [7]): 4.97; inhibition (Cathepsin B [7]): Dose-dependent effect; inhibition [8]: Active; inhibition (SH-SY5Y [9]): Active; Activity (SH-SY5Y [10]): Active; Activity (SH-SY5Y [11]): Active; pIC50 (Cathepsin B [12]): 4.89; pKi [13]: 4.72; inhibition [14]: Dose-dependent effect; Activity (SH-SY5Y [15]): Active; inhibition [16]: Active; inhibition [17]: Active
12 | 4.77 | 4.96 | 4.79 | COc1cc(/C=C/C=C/C(=O)c2ccc(O)cc2)ccc1O | inhibition [5]: Active; inhibition [6]: Active; pKi (Cathepsin B [7]): 5.32; inhibition (Cathepsin B [7]): Dose-dependent effect; inhibition [8]: Active; inhibition (SH-SY5Y [9]): Active; Activity (SH-SY5Y [10]): Active; Activity (SH-SY5Y [11]): Active; pIC50 (Cathepsin B [12]): 5.42; pKi [13]: 5.24; inhibition [14]: Dose-dependent effect; Activity (SH-SY5Y [15]): Active; inhibition [16]: Active; inhibition [17]: Active
13 | 4.39 | < 4.30 | 4.48 | O=C(/C=C/c1ccc(O)c2ccccc12)c1ccco1 | 
14 | 4.86 | 4.48 | 4.58 | COc1ccccc1/C=C/C=C/C(=O)c1ccc(O)cc1 | 
15 | 4.62 | 4.81 | 4.81 | COc1cc(O)ccc1C(=O)/C=C/c1ccc(O)c2ccccc12 | 
16 | 6.53 | < 4.00 | 7.14 | CCCC[C@@H](C=O)NC(=O)[C@H](CC(C)C)NC(=O)OCc1ccccc1 [CALPEPTIN] | 
17 | 4.89 | 4.86 | 4.57 | CCOc1cc(O)ccc1C(=O)/C=C/C=C/c1ccccc1OC | 
18 | 4.72 | 4.48 | 4.32 | COc1ccccc1/C=C/C=C/C(=O)c1cccnc1 | 
19 | 4.99 | 4.84 | 4.59 | COc1ccc(/C=C/C(=O)c2ccc(O)cc2)c2ccccc12 | 
